Measured values taken from patent US6440999B1, “Intimal thickening inhibitory agent” (Chugai Seiyaku Kabushiki Kaisha, priority 1995, dated 2002).
Marks after values point to notes of the source that are not given here.

Columns and labels:
[1] = tested on: rabbit balloon injury models; experiment: In vivo effect in intimal thickening model (1), rabbit balloon injury
Procedure: In order to assess the inhibitory effect of the compound of the present invention on intimal thickening in vivo, the compound of Example 36 was tested using rabbit balloon injury models.
(§1) Cholesterol-fed rabbits in groups of eight (JW: CSK male, 11-week-old) were used to prepare rabbit balloon injury models. Briefly, rabbits were fed with a high cholesterol diet (cholesterol content: 1%) for 2 weeks before balloon treatment. The animals were balloon-treated with a balloon catheter (3 French, available from Baxter) under anesthesia to peel the aortic intima 5 times. The animals were orally administered with the compound which was suspended in a 1% carboxymethyl cellulose (CMC) solution (200 mg/kg). On the other hand, control animals were orally administered with a 1% CMC solution without the compound. The administrations were performed once a day from 1 week before the balloon treatment until the day before the dissection for evaluation.
After four weeks from the balloon treatment, specimens were taken from the aorta, stained with Elastica van Geison, and analyzed under an optical microscope. The image was processed to measure the thickness and area of the thickened intima. Averages of the thickness and area were obtained for each individual animal. The animals which died due to the operation and those having a serum cholesterol level of 3500 mg/dl or higher were excluded from the measurement. The number of animals used for the evaluation was 5 or 6 per group.

[2] = tested on: rabbit balloon injury models; experiment: In vivo effect in intimal thickening model (2), rabbit balloon injury
Procedure: In order to assess the inhibitory effect of the compound of the present invention on intimal thickening in vivo, the compound of Example 36 was tested using rabbit balloon injury models that were different from those used in Test Example 4 in week-age. Further, the effect was compared with that of Probucol which was reported to have an inhibitory effect on intimal thickening in balloon injury models (see Proc. Natl. Acad. Sci., U.S.A., 89, pp 11312-11316 (1992)).
as §1, with “seven” for “eight”, “15-week-old)” for “11-week-old)”, “(4” for “(3”, “CMC” for “carboxymethyl cellulose (CMC)”, “evaluation. In order to evaluate the degree of balloon injury, a balloon-nontreated group (3 animals) was prepared.” for “evaluation.”
After four weeks from the balloon treatment, specimens were taken from the aorta, stained with Elastica van Geison, and analyzed under an optical microscope. The image was processed to measure the thickness and area of the thickened intima. Averages of the thickness and area were obtained for each individual animal. The animals which died after the operation and those having a serum cholesterol level of 3500 mg/dl or higher were excluded from the measurement. The number of animals used for the evaluation was 4 or 5 per group.

[3] = tested on: A7r5 cells derived from the aorta of a rat; experiment: Inhibition of serum- or PDGF-stimulated proliferation of vascular smooth muscle cells, [3H]-thymidine uptake; type: cell-based
Procedure: In order to assess the inhibitory effect of a compound of the present invention on serum- or PDGF-stimulated proliferation of vascular smooth muscle cells in vitro, the compound obtained in Example 36 was tested using A7r5 cells derived from the aorta of a rat (ATCC-CRL-1444). Further, the effect was compared with that of α-tocopherol which was reported to have an inhibitory effect on proliferation of vascular smooth muscle cells (see J. Biol. Chem., 266, pp. 6188-6194 (1991)).
Using DMEM medium containing 10% FBS, the cells were placed on 96-well microtiter plates with 5×10^3 cells/0.2 ml/well and then incubated. The medium was exchanged for 2% FBS-containing DMEM medium on the third day and then for 0.2% FBS-containing DMEM medium on the fourth day from the start of the incubation. After 48-hour incubation in the 0.2% FBS-containing DMEM medium, the medium was removed, 0.2 ml of DMEM medium and the test compound were added, and the cells were stimulated with serum (2% FBS) or PDGF (PDGF-BB: human origin, available from Becton Dickinson Labware) (4 ng/ml) to proliferate. The test compound was added to the wells in the form of a solution or suspension in ethanol in amount of 1 μl well to final compound concentrations indicated in Table 2 below and the resultant ethanol concentration of 0.5% in each well. Eight hours after the stimulation, hydroxyurea was added to a final concentration of 1.5 mM to synchronize the cell cycle strictly. After additional 14-hour incubation, the medium containing hydroxyurea was removed and the cells were washed, and DMEM medium, the test compound and the proliferation stimulator were added thereto again. Further, [^3H]-thymidine (1 μCi/well; […]; available from NEN Research) was added. The [^3H]-thymidine uptake in 5 hours was measured as an indication of cell proliferation.

[4] = tested on: A7r5 cells derived from the aorta of a rat; experiment: Inhibition of serum-stimulated proliferation of vascular smooth muscle cells, BrdU uptake (EIA); type: cell-based; details: for Absorbance (difference between 405 nm and 492 nm), BrdU uptake: n = 3, mean ± SD
Procedure: In order to assess the inhibitory effect of a compound of the present invention on serum-stimulated pro-liferation of vascular smooth muscle cells in vitro, the compound obtained in Example 36 was tested using A7r5 cells derived from the aorta of a rat (ATCC-CRL-1444).
Using DMEM medium containing 10% FBS, the cells were placed on 96-well microtiter plates with 5×10^3 cells/0.2 ml/well and then incubated. The medium was exchanged for 2% FBS-containing DMEM medium on the third day and then for 0.2% FBS-containing DMEM medium on the fourth day from the start of the incubation. After 48-hour incubation in the 0.2% FBS-containing DMEM medium, the medium was removed, 0.1 ml of DMEM medium and the test compound were added, and the cells were stimulated with serum (2% FBS) to proliferate. The test compound was added to the wells in the form of a solution or suspension in ethanol in an amount of 0.5 μl/well to final compound concentrations indicated in Table 1 below and the resultant ethanol concentration of 0.5% in each well. BrdU was pulsed to the wells from the 16th to 38th hours or from the 38th to 64th hours after the stimulation to a final concentration of 10 μM, and the uptake of BrdU into DNA was evaluated as an indication of cell proliferation. The BrdU uptake was measured by means of an EIA kit containing an anti-BrdU antibody (5-Bromo-2′-deoxy-uridine Labeling and Detection Kit III, available from Bohringer Mannheim Biochemica).

[5] = both intimal thickness and intimal area, 200 mg/kg oral

Q: For `CCCCCC1(CCCCC)Cc2c(cc(C(C)(C)C)c(O)c2C(C)(C)C)O1` [Example 36, 4,6-Di-t-butyl-2,2-di-n-pentyl-5-hydroxy-2,3-dihydrobenzofuran], which “Inhibitory effect on intimal thickening (in words)” value [1, 5] is on record?
A: significant inhibitory effect on intimal thickening

Q: What about the “Area of Intima” value ([1]; cholesterol-fed rabbits, 11-week-old, 200 mg/kg oral once a day, four weeks after balloon treatment, control 0.26 ± 0.03, mean ± SD) of the same compound?
A: 0.11 ± 0.08** mm^2

Q: And the “Thickness of Intima” value ([1]; cholesterol-fed rabbits, 11-week-old, 200 mg/kg oral once a day, four weeks after balloon treatment, control 103 ± 12, mean ± SD)?
A: 45 ± 31 μm

Q: And the “Inhibitory effect on intimal thickening compared with Probucol (in words)” value ([2]; 200 mg/kg oral)?
A: higher than that of Probucol

Q: And the “Inhibitory effect on intimal thickening (in words)” value [2, 5]?
A: significant inhibitory effect on intimal thickening

Q: And the Area of Intima ([2]; cholesterol-fed rabbits, 15-week-old, 200 mg/kg oral once a day, four weeks after balloon treatment, control 1.32 ± 0.22, mean ± SD)?
A: 0.81 ± 0.22 mm²

Q: And the “Thickness of Intima” value ([2]; cholesterol-fed rabbits, 15-week-old, 200 mg/kg oral once a day, four weeks after balloon treatment, control 119 ± 19, mean ± SD)?
A: 76 ± 16 μm

Q: And the “Count by Liquid Scintillation Counter, FBS Stimulation ([3H]-thymidine uptake)” value ([3]; 100 μM, 2% FBS, uptake in 5 hours, control 42789 ± 1063, n = 3, mean ± SD)?
A: 14147 ± 1372 CPM

Q: And the “Count by Liquid Scintillation Counter, PDGF Stimulation ([3H]-thymidine uptake)” value ([3]; 100 μM, PDGF-BB 4 ng/ml, uptake in 5 hours, control 24517 ± 2370, n = 3, mean ± SD)?
A: 7881 ± 356 CPM

Q: And the “Inhibitory effect compared with α-tocopherol (in words)” value ([3]; [3H]-thymidine uptake)?
A: higher than that of α-tocopherol

Q: What about the “Inhibition of serum- or PDGF-stimulated proliferation of vascular smooth muscle cells (in words)” value ([3]; [3H]-thymidine uptake, 100 μM) of the same compound?
A: inhibits serum- or PDGF-stimulated proliferation of vascular smooth muscle cells

Q: And the “Absorbance (difference between 405 nm and 492 nm), BrdU uptake” value ([4]; 10 μM, BrdU pulse 16-38 hrs. after 2% FBS stimulation, control 0.433 ± 0.008)?
A: 0.397 ± 0.054

Q: What about the “Absorbance (difference between 405 nm and 492 nm), BrdU uptake” value ([4]; 10 μM, BrdU pulse 38-64 hrs. after 2% FBS stimulation, control 0.436 ± 0.060) of the same compound?
A: 0.195 ± 0.017

Q: What about the “Absorbance (difference between 405 nm and 492 nm), BrdU uptake” value ([4]; 30 μM, BrdU pulse 16-38 hrs. after 2% FBS stimulation, control 0.433 ± 0.008) of the same compound?
A: 0.362 ± 0.026

Q: What about the “Absorbance (difference between 405 nm and 492 nm), BrdU uptake” value ([4]; 30 μM, BrdU pulse 38-64 hrs. after 2% FBS stimulation, control 0.436 ± 0.060) of the same compound?
A: 0.085 ± 0.006

Q: And the “Absorbance (difference between 405 nm and 492 nm), BrdU uptake” value ([4]; 100 μM, BrdU pulse 16-38 hrs. after 2% FBS stimulation, control 0.433 ± 0.008)?
A: 0.290 ± 0.031

Q: And the “Absorbance (difference between 405 nm and 492 nm), BrdU uptake” value ([4]; 100 μM, BrdU pulse 38-64 hrs. after 2% FBS stimulation, control 0.436 ± 0.060)?
A: 0.049 ± 0.006

Q: And the “Inhibition of serum-stimulated proliferation of vascular smooth muscle cells (in words)” value ([4]; BrdU uptake, 10-100 μM)?
A: inhibits the serum-stimulated proliferation of vascular smooth muscle cells dose-dependently
